Positions count from the first letter of the chain named. pKd: −log10 of the molar value. Read-outs that look alike come from different tables or passages of the source.
Experiments:
GlyR α1^F108A = biological target: T1, GlyR α1^F108A (Homo sapiens, UniProt P23415, F136A); format: cell-based
T1 sequence (P23415 29-457 F136A): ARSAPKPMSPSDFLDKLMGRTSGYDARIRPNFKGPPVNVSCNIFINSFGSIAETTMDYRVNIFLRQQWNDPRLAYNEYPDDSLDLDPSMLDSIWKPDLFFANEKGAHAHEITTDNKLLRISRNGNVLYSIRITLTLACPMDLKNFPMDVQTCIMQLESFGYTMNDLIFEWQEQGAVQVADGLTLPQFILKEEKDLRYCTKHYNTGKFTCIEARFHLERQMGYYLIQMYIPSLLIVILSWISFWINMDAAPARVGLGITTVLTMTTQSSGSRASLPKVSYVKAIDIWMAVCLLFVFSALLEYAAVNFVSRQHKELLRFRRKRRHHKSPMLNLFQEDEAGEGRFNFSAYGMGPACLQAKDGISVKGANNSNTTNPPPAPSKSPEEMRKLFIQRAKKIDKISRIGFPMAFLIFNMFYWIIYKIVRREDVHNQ

[1] = test system: Zn^2+-activated GlyRs (ZAGs); format: cell-based, human
GlyR α1^F99A = biological target: T2, GlyR α1^F99A (Homo sapiens, UniProt P23415, F127A); experiment: Whole-cell recording of substituted GlyR in HEK cells; format: cell-based
T2 sequence (P23415 29-457 F127A): T1 sequence (P23415 29-457 F136A) with F99A, A108F

GlyR α1^L134A = biological target: T3, GlyR α1^L134A (Homo sapiens, UniProt P23415, L162A); experiment: as above; format: cell-based
T3 sequence (P23415 29-457 L162A): T1 sequence (P23415 29-457 F136A) with A108F, L134A

GlyR α1^L98A = biological target: T4, GlyR α1^L98A (Homo sapiens, UniProt P23415, L126A); experiment: as above; format: cell-based
T4 sequence (P23415 29-457 L126A): T1 sequence (P23415 29-457 F136A) with L98A, A108F

[2] = read-out: Zn^2+ complexation KD; ref [52]; cited from earlier work

Compound: N#C[B-](c1ccccc1)(c1ccccc1)c1ccccc1 [CTB, cyanotriphenylborate]
- Effect on Zn^2+-activated currents (GlyR α1^F108A): abolished
- Standing current remaining after block of spontaneous leak ([1]; CTB 20 μM, considered full abolition of receptor-mediated leak): less than 50 pA

Compound: c1ccc(CN(CCN(Cc2ccccn2)Cc2ccccn2)Cc2ccccn2)nc1 [TPEN, N,N,N’,N’-tetrakis-(2-pyridylmethyl)-ethylenediamine]
- Effect on leak current (component caused by Zn^2+ contamination) ([1]; TPEN 100 μM, α1^L98A, α1^F99A, α1^F108A, α1^L134A): reduced

Compound: O=C1C[C@@H]2OCC=C3CN4CC[C@]56c7ccccc7N1[C@H]5[C@H]2[C@H]3C[C@H]46 [strychnine]
- Attenuation of leak current (GlyR α1^F99A): 100%
- Attenuation of leak current (GlyR α1^L134A): 90 ± 4%
- Effect on Zn^2+ activation (GlyR α1^L98A): inhibited
- Loss of potency inhibiting leak current compared to glycine-activated currents [1]: 10 fold

Compound: O=C(O)CNC(CO)(CO)CO [tricine]
- pKd [2]: 5.00

Compound: picrotoxin
- Effect on Zn^2+ activation (GlyR α1^L98A; picrotoxin, α1^L98A, Zn^2+ EC50-activated currents (Fig. 2f)): inhibited

— PMC6685790 (Nature structural & molecular biology, 2008)
